This assay concerns the target Neuronal acetylcholine receptor; alpha4/beta2 (Rattus norvegicus, UniProt P09483+P12390). Nature of the assay: In vitro binding affinity towards (alpha-4)2(beta-2)3 neuronal nicotinic acetylcholine receptor in P2 membrane fractions of rat forebrain. In kind it is cell membranes.

Sequence of Neuronal acetylcholine receptor; alpha4/beta2 (P09483 whole entry): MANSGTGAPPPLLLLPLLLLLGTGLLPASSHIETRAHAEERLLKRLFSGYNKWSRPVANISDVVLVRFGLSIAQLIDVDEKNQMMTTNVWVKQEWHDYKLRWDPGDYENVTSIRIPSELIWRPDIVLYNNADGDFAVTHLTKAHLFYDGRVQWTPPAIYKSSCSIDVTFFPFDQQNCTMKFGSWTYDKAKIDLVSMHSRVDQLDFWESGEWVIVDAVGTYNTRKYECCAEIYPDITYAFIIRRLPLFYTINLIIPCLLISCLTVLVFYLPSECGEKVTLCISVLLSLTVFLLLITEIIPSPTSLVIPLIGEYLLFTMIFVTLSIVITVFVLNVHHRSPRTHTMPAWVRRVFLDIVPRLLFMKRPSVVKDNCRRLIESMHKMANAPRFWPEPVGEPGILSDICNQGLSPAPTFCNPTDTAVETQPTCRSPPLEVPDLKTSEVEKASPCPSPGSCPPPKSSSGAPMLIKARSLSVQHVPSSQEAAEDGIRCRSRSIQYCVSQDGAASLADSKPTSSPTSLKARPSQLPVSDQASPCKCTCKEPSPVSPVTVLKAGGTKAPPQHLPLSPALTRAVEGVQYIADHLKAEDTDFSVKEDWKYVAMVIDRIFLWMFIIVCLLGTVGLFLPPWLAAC
Sequence of Neuronal acetylcholine receptor; alpha4/beta2 (P12390 whole entry): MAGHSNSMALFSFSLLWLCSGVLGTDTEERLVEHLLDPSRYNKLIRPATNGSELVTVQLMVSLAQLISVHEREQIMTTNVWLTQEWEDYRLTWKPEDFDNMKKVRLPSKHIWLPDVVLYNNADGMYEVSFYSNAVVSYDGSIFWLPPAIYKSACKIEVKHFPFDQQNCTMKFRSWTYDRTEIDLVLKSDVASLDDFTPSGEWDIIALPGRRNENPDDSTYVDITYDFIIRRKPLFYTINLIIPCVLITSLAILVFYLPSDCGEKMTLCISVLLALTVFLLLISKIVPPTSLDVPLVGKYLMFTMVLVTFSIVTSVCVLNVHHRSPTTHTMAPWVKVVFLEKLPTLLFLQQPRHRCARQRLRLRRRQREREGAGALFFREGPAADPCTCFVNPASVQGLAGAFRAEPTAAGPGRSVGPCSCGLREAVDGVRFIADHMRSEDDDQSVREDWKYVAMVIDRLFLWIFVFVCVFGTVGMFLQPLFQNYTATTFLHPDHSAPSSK

What is called Ki is a dissociation constant, usually derived from enzyme kinetics or from competition with a known ligand. A high value points to lower affinity. Consider `CC(=O)C1=CCC2CCC1N2C` (centres undefined), for which the Ki was 120 nM.

Take `C1=C(c2cncnc2)C2CCC(CC1)N2` (centres undefined): the Ki was 0.141 nM. Against the preceding compound, the Ki is about 850-fold lower.

The compound `O=c1ccc(Cl)c2n1CC1CNCC2C1` (centres undefined) showed a Ki of 2.51 nM.

Turning to `CN1C2CC=C(c3cccnc3)C1CC2` (centres undefined), the affinity corresponds to a Ki of 9.55 nM.

In turn, `O=c1cccc2n1C[C@@H]1CNC[C@H]2C1` [CYTISINICLINE] showed a Ki of 0.123 nM.

Consider `Cc1cc(C2=CCC3CCC2N3C)on1` (centres undefined), for which the Ki was 31.6 nM.

`O=c1c(I)ccc2n1CC1CNCC2C1` (centres undefined) showed a Ki of 0.017 nM.

For `COC(=O)C1=C(c2cncnc2)CC2CCC1N2C` (centres undefined), the affinity, expressed as Ki, was 214 nM.

For `Fc1ccc(C2CC3CCC2N3)cn1` (centres undefined), the Ki is 0.0282 nM.

In turn, `COC(=O)C1=C(c2ccc(Cl)nc2)CC2CCC1N2C` (centres undefined) gave a Ki of 1660 nM.

For the compound `CN1C2CCC1CN(c1ccc(Cl)nn1)CC2` (centres undefined), the Ki is 0.55 nM.

Take `Clc1ccc(C2=CN3CCC2CC3)cn1`: the Ki is 2.29 nM.

With `S=c1cccc2n1CC1CNCC2C1` (centres undefined), the Ki is 0.832 nM.

Compound `C1=C(c2cccnc2)CC2CCC1N2` (centres undefined) gave a Ki of 0.257 nM.

Compound `Brc1ccc(C2CC3CCC2N3)cn1` (centres undefined) had a Ki of 0.0447 nM.

Compound `c1cncc(C2CC3CCC2N3)c1` (centres undefined) [DESCHLOROEPIBATIDINE] showed a Ki of 0.0257 nM.

Take `CN1C2CCC1CN(c1cncnc1)CC2` (centres undefined): the Ki is 2.09 nM. This Ki is about 81-fold higher than that of the compound before.

Regarding `CN1C2CC=C(c3cncnc3)C1CC2` (centres undefined), the affinity, expressed as Ki, was 12.6 nM.

`C1=C(c2cncnc2)C2CCN1CC2` showed a Ki of 12.3 nM. The Ki values of the last two compounds are within 1.5-fold of each other.

As to `C1=C(c2ccnnc2)C2CCC(C1)N2` (centres undefined), the Ki is 7.94 nM.

Consider `O=c1c(I)cc(I)c2n1CC1CNCC2C1` (centres undefined), for which the affinity corresponds to a Ki of 0.525 nM.

Regarding `O=c1c(Cl)ccc2n1CC1CNCC2C1` (centres undefined), affinity was put at a Ki of 0.0224 nM. This Ki is about 23-fold lower than that of the compound before.

On to `CN(C)C(=O)C1=CCC2CCC1N2` (centres undefined), for which affinity was put at a Ki of 61700 nM.

`C1=C(c2cccnc2)C2CCN1CC2` had a Ki of 7.59 nM.

Consider `CN(C)C(=O)C1=CCC2CCC1N2C` (centres undefined), for which the Ki is 2000 nM. Against the preceding compound, the Ki is about 260-fold higher.

`c1ncc2c(n1)C1CCC(C2)N1` (centres undefined) gave a Ki greater than 10000 nM.

On to `CC(=O)C1=CCC2CCC1N2` (centres undefined), for which affinity was put at a Ki of 93.3 nM.

With `Clc1ncc(C2=CCC3CCC2N3)cn1` (centres undefined), affinity was put at a Ki of 2 nM.

`CN1C2CCC1CN(c1ccc(Cl)nc1)CC2` (centres undefined) showed a Ki of 0.871 nM.

With `Clc1ncc(C2=CCCC3CCC2N3)cn1` (centres undefined), affinity was put at a Ki of 0.151 nM.

Compound `Clc1nccnc1C1=CCC2CCC1N2` (centres undefined) had a Ki of 4170 nM.

`O=c1c(Cl)cc(Cl)c2n1CC1CNCC2C1` (centres undefined): the affinity corresponds to a Ki of 2.51 nM.

As for `CN(C)C(=S)C1=CCC2CCC1N2` (centres undefined), the affinity, expressed as Ki, was 2450 nM.

Compound `COC(=O)C1=C(c2cccnc2)CC2CCC1N2C` (centres undefined) gave a Ki of 4900 nM.

For `c1ncc2c(n1)CC1CCC2N1` (centres undefined), the Ki was 676 nM.

`O=c1c(Br)cc(Br)c2n1CC1CNCC2C1` (centres undefined) showed a Ki of 10.7 nM.

Compound `CN1C2C=C(c3cncnc3)CC1CC2` (stereo in doubt; 33) gave a Ki of 43.7 nM.

Consider `c1nncc2c1CC1CCC2N1` (centres undefined), for which the Ki was 75.9 nM.

`CN1C2CCC1C(c1ccc(Br)nc1)C2` (centres undefined) showed a Ki of 0.0363 nM. Compared with the last compound, the Ki is about 2100-fold lower.

Take `C1=C(c2ccnnc2)C2CCC(CC1)N2` (centres undefined): the Ki is 19.1 nM.

For the compound `C1=C(c2cccnc2)C2CCC(CC1)N2` (centres undefined), the inhibitory constant (Ki) was 0.0513 nM. This Ki lies about 370-fold lower than the previous one.

For the compound `Clc1nccnc1C1=CC2CCC(C1)N2` (centres undefined), the Ki is 209 nM.

Regarding `CN1C2CC=C(c3ccc(Cl)nc3)C1CC2` (centres undefined), the Ki was 8.91 nM.

With `CN1C2CCC1CN(c1cnccn1)CC2` (centres undefined), affinity was put at a Ki of 263 nM.

Regarding `O=c1ccc(Br)c2n1CC1CNCC2C1` (centres undefined), the affinity corresponds to a Ki of 0.309 nM.

`c1nncc2c1CCC1CCC2N1` (centres undefined) had a Ki of 34.7 nM.

In turn, `Clc1ncc(C2=CC3CCC(C2)N3)cn1` (centres undefined) gave a Ki of 0.708 nM. Compared with the last compound, the Ki is about 49-fold lower.

As for `CN1C2CCC1CN(c1ccnnc1)CC2` (centres undefined), the affinity, expressed as Ki, was 0.525 nM.

The compound `CN1C2CCC1C(c1ccc(Cl)nc1)C2` (centres undefined) showed a Ki of 0.0269 nM.

Compound `C1=C(c2cnccn2)C2CCC(CC1)N2` (centres undefined) gave a Ki of 12 nM.

With `C1=C(c2cccnc2)C2CCC(C1)N2` (centres undefined), the Ki was 1.58 nM.

With `C1=C(c2cnccn2)CC2CCC1N2` (centres undefined), affinity was put at a Ki of 30.9 nM.

The compound `CN1CC2CC(C1)c1cccc(=O)n1C2` (centres undefined) showed a Ki of 5.75 nM.

Compound `O=c1ccc(I)c2n1CC1CNCC2C1` (centres undefined) gave a Ki of 0.229 nM. This Ki is about 25-fold lower than that of the compound before.

On to `C1=C(c2cncnc2)C2CCC(C1)N2` (centres undefined), for which affinity was put at a Ki of 3.72 nM. Compared with the last compound, the Ki is about 16-fold higher.

The compound `CN1C2CCC1C(c1ccc(F)nc1)C2` (centres undefined) showed a Ki of 0.0282 nM.

For `C1=C(c2cnccn2)C2CCC(C1)N2` (centres undefined), the Ki was 398 nM.

Compound `O=c1c(Br)ccc2n1CC1CNCC2C1` (centres undefined) showed a Ki of 0.01 nM.

Turning to `C1=C(c2ccnnc2)CC2CCC1N2` (centres undefined), the Ki was 10 nM.

Turning to `CN1C2C=C(c3ccc(Cl)nc3)CC1CC2` (centres undefined), affinity was put at a Ki of 1.55 nM.

Compound `Ic1ccc(C2CC3CCC2N3)cn1` (centres undefined) had a Ki of 0.0251 nM.

On to `CN1C2C=C(c3cncnc3)CC1CC2` (stereo in doubt; 58), for which the Ki was 1.26 nM.

`C1=C(c2cncnc2)CC2CCC1N2` (centres undefined) showed an inhibition constant Ki of 0.661 nM. This Ki lies about 1.9-fold lower than the previous one.

Consider `CN(C)C(=S)C1=CCC2CCC1N2C` (centres undefined), for which the Ki was greater than 20000 nM.

The record behind these values is ChEMBL document CHEMBL1144890, “3D QSAR analyses-guided rational design of novel ligands for the (alpha4)2(beta2)3 nicotinic acetylcholine receptor” (J Med Chem, 2003).
